Source: patent US20090258385A1, “METHOD OF ANALYZING CELLS BY FLOW CYTOMETRY, USE OF AN ANTIOXIDANT AND/OR FREE RADICAL-SCAVENGING AGENT IN SUCH A METHOD AND INCUBATION BUFFER COMPRISING AN ANTIOXIDANT AND/OR FREE RADICAL-SCAVENGING AGENT” (Hopitaux de Paris, priority 2008, published 2009)

Assays:
[1] = test system: monocytes labeled with anti-CD45 antibody conjugated with APC tandem; experiment: percentage of decoupling of APC tandem on immunolabeled monocytes by flow cytometry; type: cell-based, human
Source text: (§1) The terms “percentage of decoupling”, “% decoupling”, “% decoupling APC vs APC-Cy7”, “% decoupling APC vs APC-H7” are used in the preceding text and in the text which follows and in the accompanying figures to denote the ratio:
(§2) [Number of cells which, although having been labeled with an APC tandem, emit fluorescence into the APC channel (and not into the channel of the APC tandem used)]/[total number of cells which have been labeled with the APC tandem, regardless of the channel into which they emit],
(§3) this ratio being multiplied by 100.
(§4) For each immunolabeling experiment, the cells were mixed and subjected to flow cytometry analysis on a Becton Dickinson FACSCanto II apparatus. From 10,000 to 50,000 events were acquired per test. The singlet cells were selected by a commonly used cell sorting procedure: intersection of the three windows (P1, P2 and P3) of the biparametric histograms.
(§5) For each type of cells, the percentage of decoupling was calculated as previously described using the BD […] software.
(§6) The results are represented in FIGS. 25 and 26.

[2] = test system: lymphocytes labeled with anti-CD45 antibody conjugated with APC tandem; experiment: percentage of decoupling of APC tandem on immunolabeled lymphocytes by flow cytometry; type: cell-based, human
Protocol: The positivity threshold was determined in the APC channel at the time T0 and related to the time T30. The percentage of “decoupled” cells was expressed as the ratio of the total number of both APC- and APC tandem-positive cells to the total APC tandem-positive lymphocytes.

[3] = decoupling / signal impairment of APC tandem attached to beads (no cells)
Source text: For that, they analyzed the stability of the APC tandem fluorochromes attached to lymphocytes and compared it to the stability of these same APC tandems attached to beads. This comparison makes it possible to determine whether or not it is the APC tandem which is degraded, regardless of the context in which it is used, or if the APC tandem is only degraded in the presence of cells.
The beads used in these experiments were beads Compbeads® from Becton Dickinson.
The lymphocytes, like the beads, were labeled with anti-CD45 antibodies conjugated with the APC-Cy7 tandem fluorochrome or with the APC-H7 tandem fluorochrome.

monocytes = test system: monocytes
Protocol: (§7) Aliquots of human peripheral blood (containing 500,000 leukocytes) were incubated in the lysis buffer and then washed three times with 1×PBS supplemented with 2.5% FBS. The cells (500,000) were then immuno-labeled with 5 μl of each of the desired antibodies conjugated either with the desired APC tandem or with APC alone in 100 μl of incubation buffer for 20 min at room temperature, and washed three times with the PBS/FBS solution and resuspended in 200 μl of PBS/FBS solution.
(§8) The dead cells were labeled for their exclusion during analysis of the data acquired by flow cytometry using the intercalating agent 7-aminoactinomycin-D (7-AAD) from SIGMA-ALDRICH.

[4] = test system: neutrophilic polynuclear cells
Protocol: as §7, §8

[5] = test system: neutrophilic polynuclear cells labeled with anti-CD45 antibody conjugated with APC tandem; experiment: percentage of decoupling of APC tandem on immunolabeled neutrophilic polynuclear cells by flow cytometry; type: cell-based, human
Source text: as §1, §2, §3, §4, §5, §6

cells = experiment: toxicity to cells at the concentrations used; type: cell-based
lymphocytes = experiment: viability and morphology of lymphocytes; type: cell-based, human
[6] = neutrophilic polynuclear cells, H2O2

Question: With `OO` [H2O2, hydrogen peroxide] as the compound, how does the “effect on decoupling compared with lymphocytes” value ([1]; H2O2) read?
Answer: comparable role

Question: What about the “effect on percentage of decoupling” value ([2]; anti-CD45 APC-Cy7, 0.01 mM H2O2, 20 to 60 minutes) of the same compound?
Answer: does not modify

Question: And the “effect on percentage of decoupling” value ([2]; anti-CD45 APC-Cy7, 0.1 mM H2O2, 20 to 60 minutes)?
Answer: increased

Question: And the “decoupling of antibodies conjugated with APC-Cy7 attached to beads” value ([3]; beads, over time, H2O2)?
Answer: could induce the decoupling

Question: And the “effect on viability of the cells” value (monocytes; H2O2)?
Answer: without any effect on the viability

Question: What about the “effect on viability of the cells” value [4, 6] of the same compound?
Answer: without any effect on the viability

Question: What about the “effect on decoupling compared with lymphocytes” value [5, 6] of the same compound?
Answer: comparable role

Question: With `[N-]=[N+]=[N-]` [NaN3, sodium azide] as the compound, how does the “effect on cell viability” value (monocytes; NaN3) read?
Answer: without affecting cell viability

Question: What about the “effect on cell viability” value ([4]; neutrophilic polynuclear leukocytes, NaN3) of the same compound?
Answer: without affecting cell viability

Question: Which results are given for `O=C1O[C@H]([C@@H](O)CO)C(O)=C1O` [vitamin C, L-ascorbic acid]?
Answer: concentration at which a sufficient decrease of the percentage of decoupling appears [1]: 1 mM; concentration up to which the decrease of decoupling exists [1]: ≤ 10 mM; effect on percentage of decoupling over time ([2]; anti-CD45 APC-Cy7, 1 mM vitamin C, room temperature, monitored 1 hour): strongly inhibits; effect on percentage of decoupling ([2]; vitamin C 0.1 mM): only a reduced effect; effect on impairment of the APC tandem signal caused by H2O2 ([3]; beads Compbeads, H2O2 0 to 1 mM, 1 mM vitamin C): blocks the impairment of the signal; toxicity to cells (cells): not toxic to cells; concentration above which morphology and viability are modified (lymphocytes): above 10 mM; concentration above which viability and morphology are modified (monocytes): > 10 mM; concentration above which cells begin to undergo a decrease in viability ([4]; neutrophilic polynuclear cells): Above 10 mM; concentration above which cells begin to undergo morphological impairment ([4]; neutrophilic polynuclear cells): Above 4 mM; concentration at which a sufficient decrease of the percentage of decoupling is obtained ([5]; neutrophilic polynuclear cells): 0.25 mM; concentration up to which the decrease of decoupling exists ([5]; neutrophilic polynuclear cells): ≤ 10 mM; effect on percentage of decoupling over time ([5]; neutrophilic polynuclear leukocytes, anti-CD45 APC-Cy7, 1 mM vitamin C, room temperature, monitored 1 hour): strongly inhibits
